From ChEMBL document CHEMBL3244053, “Structural modification study of bis(substituted aminoalkylamino)anthraquinones. An evaluation of the relationship of the [2-[(2-hydroxyethyl)amino]ethyl]amino side chain with antineoplastic activity” (1979)
Active and inactive are the calls of the source. No cut-off for these calls is given here.

Key:
Colon 26 [1] = test: Antineoplastic activity against mouse Colon 26 cells allografted in CDF1 mouse at 0.69 mg/kg qd for 9 days relative to control; type: functional
Colon 26 [2] = test: Antineoplastic activity against mouse Colon 26 cells allografted in CDF1 mouse assessed as survival at 0.69 mg/kg qd for 9 days; type: functional, organism-based; design: dose 0.69 mg/kg
P388 [3] = test: Antineoplastic activity against mouse P388 cells allografted in CDF1 mouse at 0.25 mg/kg qd for 9 days relative to control; type: functional
L1210 [4] = test: Antineoplastic activity against mouse L1210 cells allografted in CDF1 mouse at 4 mg/kg qd for 9 days relative to control; type: functional
L1210 [5] = test: Antineoplastic activity against mouse L1210 cells allografted in CDF1 mouse assessed as survival at 10.8 mg/kg qd for 9 days; type: functional, organism-based; design: dose 10.8 mg/kg
P388 [6] = test: Antineoplastic activity against mouse P388 cells allografted in CDF1 mouse assessed as survival at 0.5 mg/kg qd for 9 days; type: functional, organism-based; design: dose 0.5 mg/kg
P388 [7] = test: Antineoplastic activity against mouse P388 cells allografted in CDF1 mouse at 2 mg/kg qd for 9 days relative to control; type: functional
B16 [8] = test: Antineoplastic activity against mouse B16 cells allografted in BDF1 mouse assessed as survival at 2 mg/kg qd for 9 days; type: functional, organism-based; design: dose 2 mg/kg
B16 [9] = test: Antineoplastic activity against mouse B16 cells allografted in BDF1 mouse at 0.25 mg/kg qd for 9 days relative to control; type: functional
B16 [10] = test: Antineoplastic activity against mouse B16 cells allografted in BDF1 mouse at 1 mg/kg qd for 9 days relative to control; type: functional
Colon 26 [11] = test: Antineoplastic activity against mouse Colon 26 cells allografted in CDF1 mouse assessed as survival at 1.08 mg/kg qd for 9 days; type: functional, organism-based; design: dose 1.08 mg/kg
L1210 [12] = test: Antineoplastic activity against mouse L1210 cells allografted in CDF1 mouse assessed as survival at 1 mg/kg qd for 9 days; type: functional, organism-based; design: dose 1 mg/kg
B16 [13] = test: Antineoplastic activity against mouse B16 cells allografted in BDF1 mouse assessed as survival at 0.5 mg/kg qd for 9 days; type: functional, organism-based; design: dose 0.5 mg/kg
P388 [14] = test: Antineoplastic activity against mouse P388 cells allografted in CDF1 mouse assessed as survival at 0.12 mg/kg qd for 9 days; type: functional, organism-based; design: dose 0.12 mg/kg
L1210 [15] = test: Antineoplastic activity against mouse L1210 cells allografted in CDF1 mouse at 18 mg/kg qd for 9 days relative to control; type: functional
P388 [16] = test: Antineoplastic activity against mouse P388 cells allografted in CDF1 mouse at 1 mg/kg qd for 9 days relative to control; type: functional
P388 [17] = test: Antineoplastic activity against mouse P388 cells allografted in CDF1 mouse at 0.12 mg/kg qd for 9 days relative to control; type: functional
L1210 [18] = test: Antineoplastic activity against mouse L1210 cells allografted in CDF1 mouse assessed as survival at 4 mg/kg qd for 9 days; type: functional, organism-based; design: dose 4 mg/kg
L1210 [19] = test: Antineoplastic activity against mouse L1210 cells allografted in CDF1 mouse assessed as survival at 2 mg/kg qd for 9 days; type: functional, organism-based; design: dose 2 mg/kg
B16 [20] = test: Antineoplastic activity against mouse B16 cells allografted in BDF1 mouse assessed as survival at 0.25 mg/kg qd for 9 days; type: functional, organism-based; design: dose 0.25 mg/kg
Colon 26 [21] = test: Antineoplastic activity against mouse Colon 26 cells allografted in CDF1 mouse assessed as survival at 0.39 mg/kg qd for 9 days; type: functional, organism-based; design: dose 0.39 mg/kg
P388 [22] = test: Antineoplastic activity against mouse P388 cells allografted in CDF1 mouse assessed as survival at 1 mg/kg qd for 9 days; type: functional, organism-based; design: dose 1 mg/kg
L1210 [23] = test: Antineoplastic activity against mouse L1210 cells allografted in CDF1 mouse at 10.8 mg/kg qd for 9 days relative to control; type: functional
Colon 26 [24] = test: Antineoplastic activity against mouse Colon 26 cells allografted in CDF1 mouse at 1.08 mg/kg qd for 9 days relative to control; type: functional
P388 [25] = test: Antineoplastic activity against mouse P388 cells allografted in CDF1 mouse at 0.06 mg/kg qd for 9 days relative to control; type: functional
B16 [26] = test: Antineoplastic activity against mouse B16 cells allografted in BDF1 mouse assessed as survival at 1 mg/kg qd for 9 days; type: functional, organism-based; design: dose 1 mg/kg
B16 [27] = test: Antineoplastic activity against mouse B16 cells allografted in BDF1 mouse at 2 mg/kg qd for 9 days relative to control; type: functional
Colon 26 [28] = test: Antineoplastic activity against mouse Colon 26 cells allografted in CDF1 mouse at 0.39 mg/kg qd for 9 days relative to control; type: functional
P388 [29] = test: Antineoplastic activity against mouse P388 cells allografted in CDF1 mouse assessed as survival at 0.25 mg/kg qd for 9 days; type: functional, organism-based; design: dose 0.25 mg/kg
L1210 [30] = test: Antineoplastic activity against mouse L1210 cells allografted in CDF1 mouse assessed as survival at 18 mg/kg qd for 9 days; type: functional, organism-based; design: dose 18 mg/kg
L1210 [31] = test: Antineoplastic activity against mouse L1210 cells allografted in CDF1 mouse at 1 mg/kg qd for 9 days relative to control; type: functional
P388 [32] = test: Antineoplastic activity against mouse P388 cells allografted in CDF1 mouse at 0.5 mg/kg qd for 9 days relative to control; type: functional
P388 [33] = test: Antineoplastic activity against mouse P388 cells allografted in CDF1 mouse assessed as survival at 2 mg/kg qd for 9 days; type: functional, organism-based; design: dose 2 mg/kg
B16 [34] = test: Antineoplastic activity against mouse B16 cells allografted in BDF1 mouse at 0.5 mg/kg qd for 9 days relative to control; type: functional
P388 [35] = test: Antineoplastic activity against mouse P388 cells allografted in CDF1 mouse assessed as survival at 0.06 mg/kg qd for 9 days; type: functional, organism-based; design: dose 0.06 mg/kg
L1210 [36] = test: Antineoplastic activity against mouse L1210 cells allografted in CDF1 mouse at 2 mg/kg qd for 9 days relative to control; type: functional

O=C1c2c(O)ccc(O)c2C(=O)c2c(NCCNCCO)ccc(NCCNCCO)c21 [MITOXANTRONE]
T/C (Colon 26 [1]): 305% | Activity (Colon 26 [2]): Active | T/C (P388 [3]): 224% | T/C (L1210 [4]): 256% | Activity (L1210 [5]): Active | Activity (P388 [6]): Active | T/C (P388 [7]): 230% | Activity (B16 [8]): Active | T/C (B16 [9]): 186% | T/C (B16 [10]): 342% | Activity (Colon 26 [11]): Active | Activity (L1210 [12]): Active | Activity (B16 [13]): Active | Activity (P388 [14]): Active | T/C (L1210 [15]): 308% | T/C (P388 [16]): 381% | T/C (P388 [17]): 210% | Activity (L1210 [18]): Active | Activity (L1210 [19]): Active | Activity (B16 [20]): Active | Activity (Colon 26 [21]): Active | Activity (P388 [22]): Active | T/C (L1210 [23]): 261% | T/C (Colon 26 [24]): 353% | T/C (P388 [25]): 192% | Activity (B16 [26]): Active | T/C (B16 [27]): 231% | T/C (Colon 26 [28]): 259% | Activity (P388 [29]): Active | Activity (L1210 [30]): Active | T/C (L1210 [31]): 163% | T/C (P388 [32]): 305% | Activity (P388 [33]): Active | T/C (B16 [34]): 299% | Activity (P388 [35]): Active | T/C (L1210 [36]): 198%
